# Results: BindingDB's records for doi:10.1007/s00213-002-1073-7 (WestfÄLische Wilhelms-Universit&Auml, 2002)
# Tests used:
# [1] = target: Delta-type opioid receptor (Homo sapiens, UniProt P41143)
# [2] = target: 5-hydroxytryptamine receptor 2C (Homo sapiens, UniProt P28335)
# [3] = target: 5-hydroxytryptamine receptor 1B (Homo sapiens, UniProt P28222)
# [4] = target: Gamma-aminobutyric acid receptor subunit alpha-1 (Rattus norvegicus, UniProt P62813)
# [5] = target: Delta-type opioid receptor (Sus scrofa, UniProt P79291)
# [6] = target: Sodium-dependent serotonin transporter (Homo sapiens, UniProt P31645)
# Sequence of Sodium-dependent serotonin transporter (P31645 whole entry): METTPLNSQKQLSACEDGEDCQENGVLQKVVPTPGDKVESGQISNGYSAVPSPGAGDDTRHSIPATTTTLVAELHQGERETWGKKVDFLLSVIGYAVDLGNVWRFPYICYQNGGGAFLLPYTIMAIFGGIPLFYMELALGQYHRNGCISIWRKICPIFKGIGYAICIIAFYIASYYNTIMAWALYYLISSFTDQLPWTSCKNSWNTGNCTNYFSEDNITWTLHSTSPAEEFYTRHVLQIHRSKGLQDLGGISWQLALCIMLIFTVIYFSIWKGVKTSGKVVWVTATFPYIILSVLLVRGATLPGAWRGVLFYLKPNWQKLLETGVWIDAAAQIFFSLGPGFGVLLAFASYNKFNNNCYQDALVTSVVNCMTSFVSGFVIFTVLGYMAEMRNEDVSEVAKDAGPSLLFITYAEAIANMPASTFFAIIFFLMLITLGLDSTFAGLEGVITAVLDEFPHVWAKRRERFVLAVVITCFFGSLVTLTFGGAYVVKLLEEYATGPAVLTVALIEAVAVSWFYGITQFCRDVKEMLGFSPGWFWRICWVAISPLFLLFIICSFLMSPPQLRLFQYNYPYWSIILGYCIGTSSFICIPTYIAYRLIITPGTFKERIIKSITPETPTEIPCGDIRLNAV
# Sequence of Delta-type opioid receptor (Sus scrofa, UniProt P79291) (P79291 whole entry): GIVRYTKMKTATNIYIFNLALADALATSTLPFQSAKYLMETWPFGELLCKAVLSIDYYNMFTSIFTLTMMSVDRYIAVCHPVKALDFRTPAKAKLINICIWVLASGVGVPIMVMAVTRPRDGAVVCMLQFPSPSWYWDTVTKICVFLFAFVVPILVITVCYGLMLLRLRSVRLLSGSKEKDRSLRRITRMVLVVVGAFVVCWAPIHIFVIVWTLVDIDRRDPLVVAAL
# Sequence of Gamma-aminobutyric acid receptor subunit alpha-1 (P62813 whole entry): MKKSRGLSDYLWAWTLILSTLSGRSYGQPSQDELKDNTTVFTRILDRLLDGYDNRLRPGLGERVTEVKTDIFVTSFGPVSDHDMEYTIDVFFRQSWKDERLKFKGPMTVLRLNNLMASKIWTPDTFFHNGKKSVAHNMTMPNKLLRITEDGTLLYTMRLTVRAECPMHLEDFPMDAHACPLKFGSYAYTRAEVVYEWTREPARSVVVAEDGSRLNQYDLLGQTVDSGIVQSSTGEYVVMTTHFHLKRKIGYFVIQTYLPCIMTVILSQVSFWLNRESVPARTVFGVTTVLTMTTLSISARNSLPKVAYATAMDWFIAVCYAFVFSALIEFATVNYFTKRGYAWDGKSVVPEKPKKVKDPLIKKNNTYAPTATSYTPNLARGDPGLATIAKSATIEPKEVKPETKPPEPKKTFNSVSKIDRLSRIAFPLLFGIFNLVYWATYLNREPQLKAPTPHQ
# Sequence of 5-hydroxytryptamine receptor 2C (P28335 whole entry): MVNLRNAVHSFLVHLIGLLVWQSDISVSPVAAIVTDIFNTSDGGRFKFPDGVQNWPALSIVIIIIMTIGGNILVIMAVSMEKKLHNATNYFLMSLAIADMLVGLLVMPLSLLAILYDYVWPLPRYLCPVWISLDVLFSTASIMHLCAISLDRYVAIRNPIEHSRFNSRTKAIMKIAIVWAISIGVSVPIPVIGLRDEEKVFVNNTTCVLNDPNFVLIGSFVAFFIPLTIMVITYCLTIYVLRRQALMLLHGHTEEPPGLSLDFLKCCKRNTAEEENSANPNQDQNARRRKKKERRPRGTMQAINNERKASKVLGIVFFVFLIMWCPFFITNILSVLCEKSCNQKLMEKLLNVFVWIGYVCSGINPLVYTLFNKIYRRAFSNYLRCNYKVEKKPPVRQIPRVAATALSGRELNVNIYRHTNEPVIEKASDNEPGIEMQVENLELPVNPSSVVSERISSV
# Sequence of Delta-type opioid receptor (Homo sapiens, UniProt P41143) (P41143 whole entry): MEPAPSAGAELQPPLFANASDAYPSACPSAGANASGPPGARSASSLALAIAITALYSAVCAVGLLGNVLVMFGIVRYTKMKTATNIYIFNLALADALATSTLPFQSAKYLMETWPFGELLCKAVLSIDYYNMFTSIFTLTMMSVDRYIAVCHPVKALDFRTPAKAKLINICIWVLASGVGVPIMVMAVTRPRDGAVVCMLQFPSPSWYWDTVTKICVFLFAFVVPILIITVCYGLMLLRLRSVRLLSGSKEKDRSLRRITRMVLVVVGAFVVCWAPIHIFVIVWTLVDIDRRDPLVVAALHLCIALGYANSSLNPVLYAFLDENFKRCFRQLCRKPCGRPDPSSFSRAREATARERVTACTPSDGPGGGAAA
# Sequence of 5-hydroxytryptamine receptor 1B (P28222 whole entry): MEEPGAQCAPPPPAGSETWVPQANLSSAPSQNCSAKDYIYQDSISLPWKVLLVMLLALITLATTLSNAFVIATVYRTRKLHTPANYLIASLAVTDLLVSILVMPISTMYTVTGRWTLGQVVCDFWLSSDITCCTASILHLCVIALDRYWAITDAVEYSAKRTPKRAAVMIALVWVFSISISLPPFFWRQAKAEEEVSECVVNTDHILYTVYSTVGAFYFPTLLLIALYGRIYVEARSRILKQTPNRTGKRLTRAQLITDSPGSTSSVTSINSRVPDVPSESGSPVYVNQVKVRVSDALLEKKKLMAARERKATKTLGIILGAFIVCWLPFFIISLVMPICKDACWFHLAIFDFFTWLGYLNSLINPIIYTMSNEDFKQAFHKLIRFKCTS
Ki [1] [µM],Ki [2] [µM],Ki [3] [µM],Ki [4] [µM],Ki [5] [µM],Ki [6] [µM],Compound
,,,> 10,> 10,,CC(C)=CCC[C@]1(C)[C@@H](CC=C(C)C)C[C@]2(CC=C(C)C)C(=O)C(CC=C(C)C)C(=O)[C@]1(C(=O)C(C)C)C2=O (stereo not given in full)
,,,> 10,> 10,> 10,O=c1cc(O)cc2oc(-c3ccc(O)c(O)c3)c(OC3OC(CO)C(O)C(O)C3O)c(O)c1-2 (stereo not given) [NSC_5318390]

# Second part, the molecule before the results:
Compound,Ki [1] [µM],Ki [2] [µM],Ki [3] [µM],Ki [4] [µM],Ki [5] [µM],Ki [6] [µM]
O=c1cc(O)cc2oc(-c3ccc(O)c(-c4c(O)cc(O)c5c(=O)cc(-c6ccc(O)cc6)oc45)c3)cc(O)c1-2,0.0365,2.56,4.09,,,
C[C@@H]1O[C@@H](Oc2c(-c3ccc(O)c(O)c3)oc3cc(O)cc(=O)c-3c2O)[C@H](O)[C@H](O)[C@H]1O,,,,> 10,> 10,> 10
"O=c1c(O)c(-c2ccc(O)c(O)c2)oc2cc(O)cc(O)c12 [2-(3,4-dihydroxyphenyl)-3,5,7-trihydroxy-chromone;hydrate]",,,,,> 10,
C[C@@H]1O[C@@H](OC[C@H]2O[C@@H](Oc3c(-c4ccc(O)c(O)c4)oc4cc(O)cc(O)c4c3=O)[C@H](O)[C@@H](O)[C@@H]2O)[C@H](O)[C@H](O)[C@H]1O [3-Rhamnoglucosylquercetin],,,,> 10,> 10,> 10
